Assay results: ChEMBL document CHEMBL5579851, “Synthesis and antifungal evaluation of novel triazole derivatives bearing a pyrazole-methoxyl moiety” (Eur J Med Chem, 2024)
In brackets after ≈: the same amount, converted by molar mass. Activity calls are given as the source filed them. The calls are words filed in the database; no cut-off is given here.

Legend:
Candida tropicalis = assay: Antifungal activity against Candida tropicalis 8915 assessed as inhibition of fungal growth incubated for 48 hrs by CLSI based broth microdilution assay; format: functional
Nakaseomyces glabratus = assay: Antifungal activity against Candida glabrata 537 assessed as inhibition of fungal growth incubated for 48 hrs by CLSI based broth microdilution assay; format: functional
Saccharomyces cerevisiae [1] = assay: Antifungal activity against recombinant Saccharomyces cerevisiae Y525 overexpressing CaMdr1 assessed as inhibition of fungal growth incubated for 48 hrs by CLSI based broth microdilution assay; format: functional
[2] = biological target: T1, Lanosterol 14-alpha demethylase (Candida albicans (strain SC5314 / ATCC MYA-2876) (Yeast), UniProt P10613); assay: Inhibition of CYP51 in Candida albicans SC5314 assessed as obtusifoliol level at 0.5 ug/ml after 8 hrs by GC-MS analysis relative to control; design: scale not given: the % may be the effect or the level left; details: at 0.5 µg/mL
T1 sequence (P10613 whole entry): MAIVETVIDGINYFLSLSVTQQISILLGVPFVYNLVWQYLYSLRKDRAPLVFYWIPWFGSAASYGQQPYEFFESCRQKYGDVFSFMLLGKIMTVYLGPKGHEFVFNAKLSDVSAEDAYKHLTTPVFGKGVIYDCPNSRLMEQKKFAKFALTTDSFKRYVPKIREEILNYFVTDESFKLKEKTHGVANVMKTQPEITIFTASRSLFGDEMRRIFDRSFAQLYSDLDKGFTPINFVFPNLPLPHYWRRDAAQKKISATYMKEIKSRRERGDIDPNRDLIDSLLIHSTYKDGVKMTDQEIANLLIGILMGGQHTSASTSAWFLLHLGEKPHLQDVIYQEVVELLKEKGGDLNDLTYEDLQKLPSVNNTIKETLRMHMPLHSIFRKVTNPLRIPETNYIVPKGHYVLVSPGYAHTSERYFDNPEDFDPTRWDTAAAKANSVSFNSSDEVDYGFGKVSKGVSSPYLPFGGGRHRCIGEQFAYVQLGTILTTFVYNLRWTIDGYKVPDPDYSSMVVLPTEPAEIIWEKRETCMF

Candida albicans [3] = assay: Antibiofilm activity against Candida albicans SC5314 assessed as increase in matured biofilm distruption at 64 ug/ml incubated for 24 hrs by XTT assay relative to control; format: functional; details: dose 64 µg/ml
Saccharomyces cerevisiae [4] = assay: Antifungal activity against recombinant Saccharomyces cerevisiae Y2721 overexpressing CpErg11/CpCpr assessed as inhibition of fungal growth incubated for 48 hrs by CLSI based broth microdilution assay; format: functional
Pichia kudriavzevii = assay: Antifungal activity against Candida krusei 4996 assessed as inhibition of fungal growth incubated for 48 hrs by CLSI based broth microdilution assay; format: functional
Candida albicans [5] = assay: Antifungal activity against Candida albicans SC5314 assessed as inhibition of hyphae length at 0.0625 to 0.5 ug/ml after 3 hrs by inverted microscopic analysis; format: functional, organism-based; details: dose 0.0625-0.5 µg/ml
Candida albicans [6] = assay: Antifungal activity against fluconazole-resistant Candida albicans 901 assessed as inhibition of fungal growth incubated for 48 hrs by CLSI based broth microdilution assay; format: functional
Candida albicans [7] = assay: Antifungal activity against Candida albicans SC5314 assessed as inhibition of fungal growth at 0.125 ug/ml after 12 hrs by TECAN plate reader analysis; format: functional, organism-based; details: dose 0.125 µg/ml
[Candida] auris [8] = Antifungal activity against fluconazole-resistant Candida auris 891 assessed as inhibition of fungal growth incubated for 48 hrs by CLSI based broth microdilution assay; format: functional; details: Candidozyma auris
Candida albicans [9] = assay: Antifungal activity against Candida albicans 10231 assessed as inhibition of fungal growth incubated for 48 hrs by CLSI based broth microdilution assay; format: functional
Saccharomyces cerevisiae [10] = assay: Antifungal activity against recombinant Saccharomyces cerevisiae Y2462 overexpressing ScErg11/ScNcp1 assessed as inhibition of fungal growth incubated for 48 hrs by CLSI based broth microdilution assay; format: functional
[11] = Cytotoxicity against HUVEC cells assessed as cell viability at 128 ug/ml incubated for 24 hrs by CCK-8 assay relative to control; format: toxicity, cell-based; details: human, at 128 µg/mL, read-out: Activity
Candida albicans [12] = assay: Antifungal activity against Candida albicans SC5314 assessed as inhibition of fungal growth at 2 ug/ml after 36 hrs by TECAN plate reader analysis; format: functional, organism-based; details: dose 2.0 µg/ml
Cryptococcus neoformans = assay: Antifungal activity against Cryptococcus neoformans 32609 assessed as inhibition of fungal growth incubated for 72 hrs by CLSI based broth microdilution assay; format: functional
Candida albicans [13] = assay: Antifungal activity against Candida albicans SC5314 assessed as inhibition of fungal growth incubated for 48 hrs by CLSI based broth microdilution assay; format: functional
Saccharomyces cerevisiae [14] = assay: Antifungal activity against recombinant Saccharomyces cerevisiae Y2374 overexpressing CgErg11 assessed as inhibition of fungal growth incubated for 48 hrs by CLSI based broth microdilution assay; format: functional
[15] = biological target: T1, Lanosterol 14-alpha demethylase; assay: Inhibition of CYP51 in Candida albicans SC5314 assessed as lanosterol level at 0.5 ug/ml after 8 hrs by GC-MS analysis (reference value: 5.9 %); design: scale not given: the % may be the effect or the level left; details: at 0.5 µg/mL
Saccharomyces cerevisiae [16] = assay: Antifungal activity against recombinant Saccharomyces cerevisiae Y2765 overexpressing CauMdr1 assessed as inhibition of fungal growth incubated for 48 hrs by CLSI based broth microdilution assay; format: functional
[17] = biological target: T1, Lanosterol 14-alpha demethylase; assay: Inhibition of CYP51 in Candida albicans SC5314 assessed as eburicol level at 0.5 ug/ml after 8 hrs by GC-MS analysis relative to control; design: scale not given: the % may be the effect or the level left; details: at 0.5 µg/mL
[18] = biological target: T1, Lanosterol 14-alpha demethylase; assay: Inhibition of CYP51 in Candida albicans SC5314 assessed as 14alpha-methylfecosterol level at 0.5 ug/ml after 8 hrs by GC-MS analysis relative to control; design: scale not given: the % may be the effect or the level left; details: at 0.5 µg/mL
Candida albicans [19] = assay: Antifungal activity against Candida albicans SC5314 assessed as inhibition of hyphae formation at 0.0625 to 0.5 ug/ml after 3 hrs by inverted microscopic analysis; format: functional, organism-based; details: dose 0.0625-0.5 µg/ml
Cell membrane [20] = assay: Induction of membrane permeabilization in Candida albicans SC5314 assessed as increase in fluorescence at 0.5 ug/ml incubated for 8 hrs by propidium iodide staining based fluorescence microscopic analysis; details: dose 0.5 µg/ml
Saccharomyces cerevisiae [21] = assay: Antifungal activity against recombinant Saccharomyces cerevisiae Y2411 overexpressing ScErg11 assessed as inhibition of fungal growth incubated for 48 hrs by CLSI based broth microdilution assay; format: functional
Saccharomyces cerevisiae [22] = assay: Antifungal activity against recombinant Saccharomyces cerevisiae Y2769 overexpressing CauErg11 K143R mutant assessed as inhibition of fungal growth incubated for 48 hrs by CLSI based broth microdilution assay; format: functional
[Candida] auris [23] = Antifungal activity against fluconazole-resistant Candida auris 919 assessed as inhibition of fungal growth incubated for 48 hrs by CLSI based broth microdilution assay; format: functional; details: Candidozyma auris
[24] = biological target: T1, Lanosterol 14-alpha demethylase; assay: Inhibition of CYP51 in Candida albicans SC5314 assessed as ergosterol level at 0.5 ug/ml after 8 hrs by GC-MS analysis (reference value: 86.2 %); design: scale not given: the % may be the effect or the level left; details: at 0.5 µg/mL
Saccharomyces cerevisiae [25] = assay: Antifungal activity against recombinant Saccharomyces cerevisiae Y2459 overexpressing CaErg11/CaCpr assessed as inhibition of fungal growth incubated for 48 hrs by CLSI based broth microdilution assay; format: functional
Candida albicans [26] = assay: Antifungal activity against fluconazole-resistant Candida albicans 904 assessed as inhibition of fungal growth incubated for 48 hrs by CLSI based broth microdilution assay; format: functional
Saccharomyces cerevisiae [27] = assay: Antifungal activity against recombinant Saccharomyces cerevisiae Y2766 overexpressing CauCdr1 assessed as inhibition of fungal growth incubated for 48 hrs by CLSI based broth microdilution assay; format: functional
Saccharomyces cerevisiae [28] = assay: Antifungal activity against recombinant Saccharomyces cerevisiae Y570 overexpressing CaCdr1 assessed as inhibition of fungal growth incubated for 48 hrs by CLSI based broth microdilution assay; format: functional
Saccharomyces cerevisiae [29] = assay: Antifungal activity against recombinant Saccharomyces cerevisiae Y2711 overexpressing CnErg11 assessed as inhibition of fungal growth incubated for 48 hrs by CLSI based broth microdilution assay; format: functional
Saccharomyces cerevisiae [30] = assay: Antifungal activity against recombinant Saccharomyces cerevisiae Y2301 overexpressing ScErg11 Y140F mutant assessed as inhibition of fungal growth incubated for 48 hrs by CLSI based broth microdilution assay; format: functional
Saccharomyces cerevisiae [31] = assay: Antifungal activity against recombinant Saccharomyces cerevisiae Y2716 overexpressing CpErg11 Y132F mutant/ CpCpr assessed as inhibition of fungal growth incubated for 48 hrs by CLSI based broth microdilution assay; format: functional
[Candida] auris [32] = Antifungal activity against fluconazole-resistant Candida auris 918 assessed as inhibition of fungal growth incubated for 48 hrs by CLSI based broth microdilution assay; format: functional; details: Candidozyma auris
Candida albicans [33] = assay: Antibiofilm activity against Candida albicans SC5314 assessed as inhibition of biofilm formation at 64 ug/mL incubated for 24 hrs by XTT assay relative to control; format: functional
Saccharomyces cerevisiae [34] = assay: Antifungal activity against recombinant Saccharomyces cerevisiae Y2767 overexpressing CauErg11 assessed as inhibition of fungal growth incubated for 48 hrs by CLSI based broth microdilution assay; format: functional
Candida albicans [35] = assay: Antifungal activity against Candida albicans SC5314 assessed as inhibition of hyphae formation by measuring pseudohyphae at 1 ug/ml after 3 hrs by inverted microscopic analysis; format: functional, organism-based; details: dose 1.0 µg/ml
Candida parapsilosis = assay: Antifungal activity against Candida parapsilosis 22019 assessed as inhibition of fungal growth incubated for 48 hrs by CLSI based broth microdilution assay; format: functional; details: Lodderomyces parapsilosis
Saccharomyces cerevisiae [36] = assay: Antifungal activity against recombinant Saccharomyces cerevisiae Y2768 overexpressing CauErg11 T132F mutant assessed as inhibition of fungal growth incubated for 48 hrs by CLSI based broth microdilution assay; format: functional
Cell membrane [37] = assay: Induction of membrane permeabilization in Candida albicans SC5314 assessed as increase in fluorescence at 4 ug/ml incubated for 8 hrs by propidium iodide staining based fluorescence microscopic analysis; details: dose 4.0 µg/ml
Candida albicans [38] = assay: Antifungal activity against Candida albicans SC5314 assessed as inhibition of hyphae length at 1 ug/ml after 3 hrs by inverted microscopic analysis; format: functional, organism-based; details: dose 1.0 µg/ml
Saccharomyces cerevisiae [39] = assay: Antifungal activity against recombinant Saccharomyces cerevisiae Y2513 overexpressing ScErg11 Y140H mutant assessed as inhibition of fungal growth incubated for 48 hrs by CLSI based broth microdilution assay; format: functional
Saccharomyces cerevisiae [40] = assay: Antifungal activity against recombinant Saccharomyces cerevisiae Y2300 overexpressing ScErg11 assessed as inhibition of fungal growth incubated for 48 hrs by CLSI based broth microdilution assay; format: functional

Compound: OC(Cn1cncn1)(Cn1cncn1)c1ccc(F)cc1F [FLUCONAZOLE]
- MIC (Candida tropicalis): > 64 µg/mL
- MIC (Nakaseomyces glabratus): 1 µg/mL (≈ 3.27 µM)
- MIC (Saccharomyces cerevisiae [1]): > 64 µg/mL
- Activity [2]: 2%
- Activity (Candida albicans [3]): 38%
- MIC (Saccharomyces cerevisiae [4]): 4 µg/mL
- MIC (Pichia kudriavzevii): 64 µg/mL (≈ 209 µM)
- inhibition (Candida albicans [5]): inactive
- MIC (Candida albicans [6]): > 256 µg/mL
- inhibition (Candida albicans [7]): inactive
- MIC ([Candida] auris [8]): > 256 µg/mL
- MIC (Candida albicans [9]): > 64 µg/mL
- MIC (Saccharomyces cerevisiae [10]): 8 µg/mL
- viability at 24 h, 128 ug/ml [11]: 83%
- inhibition (Candida albicans [12]): inactive
- MIC (Cryptococcus neoformans): 2 µg/mL (≈ 6.53 µM)
- MIC (Candida albicans [13]): 0.5 µg/mL (≈ 1.63 µM)
- MIC (Saccharomyces cerevisiae [14]): 4 µg/mL
- Activity [15]: 38%
- MIC (Saccharomyces cerevisiae [16]): 64 µg/mL
- Activity [17]: 2%
- Activity [18]: 20%
- inhibition (Candida albicans [19]): inactive
- Activity (Cell membrane [20]): inactive
- MIC (Saccharomyces cerevisiae [21]): 1 µg/mL
- MIC (Saccharomyces cerevisiae [22]): 32 µg/mL
- MIC ([Candida] auris [23]): > 256 µg/mL
- Activity [24]: 39.8%
- MIC (Saccharomyces cerevisiae [25]): 2 µg/mL
- MIC (Candida albicans [26]): > 256 µg/mL
- MIC (Saccharomyces cerevisiae [27]): > 64 µg/mL
- MIC (Saccharomyces cerevisiae [28]): > 64 µg/mL
- MIC (Saccharomyces cerevisiae [29]): 0.5 µg/mL
- MIC (Saccharomyces cerevisiae [30]): 4 µg/mL
- MIC (Saccharomyces cerevisiae [31]): 8 µg/mL
- MIC ([Candida] auris [32]): > 256 µg/mL
- inhibition at 64 µg/mL (Candida albicans [33]): ~28%
- MIC (Saccharomyces cerevisiae [34]): 4 µg/mL
- inhibition (Candida albicans [35]): Active
- MIC (Candida parapsilosis): 4 µg/mL (≈ 13.1 µM)
- MIC (Saccharomyces cerevisiae [36]): 64 µg/mL
- Activity (Cell membrane [37]): Active
- inhibition (Candida albicans [38]): Active
- MIC (Saccharomyces cerevisiae [39]): 4 µg/mL
- MIC (Saccharomyces cerevisiae [40]): 4 µg/mL
